Data on 2 molecules can be found in paper PMC7830877, “Possibility to Biotransform Anthracyclines by Peroxidases Produced by Bjerkandera adusta CCBAS 930 with Reduction of Geno- and Cytotoxicity and Pro-Oxidative Activity” (Molecules, 2021).

The test system of data set [1] is BJ fibroblasts. In words: ROS production (H2DCFDA). The class given is cell-based, human. The settings on record: BJ cells. Here is the method:
The human skin fibroblasts cell line BJ (ATCC CRL-2522) was obtained from American Type Culture Collection (ATCC, distributors: LGC Standards, Łomianki, Poland). BJ cells were maintained in MEM medium without phenol red supplemented with 10% fetal bovine serum (FBS). Cells were maintained at 37 °C in a humidified atmosphere with 5% CO2. Cells were seeded in 96-well culture plates (Costar, St. Louis, MO, USA) at a density of 5 × 10^3 per well and initially cultured before the experiment for 24 h. […] The ROS measurement was performed according to a previously described method. […] The cells were incubated in H2DCFDA in serum-free and phenol red-free medium for 45 min before conditioned medium treatment. After 24 and 48 h of incubation of the cells with increasing concentrations of compounds (5% CO2 at 37 °C), the culture medium was replaced with fresh medium to remove extracellular residual DCF and studied compounds to reduce the fluorescence background. Cells treated with 0.3% hydrogen peroxide (H2O2) were used as a positive control (result not shown).

Another data set concerns V. fischeri. In words: Ecotoxicity assay (Microtox). The format is cell-based, Vibrio fischeri. The settings on record: initial media 10 µg/mL or decolorized post-culture fluids.
The next data set concerns bacteria. In words: Genotoxicity assay (SOS ChromoTest). The settings on record: before treatment.
The test system of another data set is B. adusta CCBAS 930. In words: Free radical (SOR) content in B. adusta CCBAS 930 cultures (NBT). Also on record: species or system Bjerkandera adusta. As to the method: The content of PhC was determined spectrophotometrically at A740nm according to Singleton and Rossi (1965) with a slight modification. SOR levels were estimated based on the detection of superoxide-induced formazan formation from nitrotetrazolium blue (NBT) (A560nm). Untreated medium with DNR or DOX at a concentration of 10 µg/mL was used as control.

Data set [2] concerns BJ fibroblasts. In words: Resazurin reduction assay. The class given is cell-based, human. The conditions noted are these: BJ cells, medium with initial solution. Here is the method: The human skin fibroblasts cell line BJ (ATCC CRL-2522) was obtained from American Type Culture Collection (ATCC, distributors: LGC Standards, Łomianki, Poland). BJ cells were maintained in MEM medium without phenol red supplemented with 10% fetal bovine serum (FBS). Cells were maintained at 37 °C in a humidified atmosphere with 5% CO2. Cells were seeded in 96-well culture plates (Costar, St. Louis, MO, USA) at a density of 5 × 10^3 per well and initially cultured before the experiment for 24 h. […] The resazurin reduction cell viability and metabolism assay was performed according to a previously described method. On the day of analysis, a working solution of 60 µM resazurin was prepared in medium containing 1% FBS. […] Fluorescence was measured with an excitation wavelength of 530 nm and emission 590 nm on a FilterMax F5 Multi-Mode microplate reader (Molecular Devices, Corp., Sunnyvale, CA, USA) for 1 and 2 h after dye addition.

Data set [3] concerns caspase-3 activity in BJ fibroblasts. In words: Caspase-3 activity. The class given is cell-based, human. The conditions noted are these: BJ cells; 24 h; medium with initial solutions. As to the method: The human skin fibroblasts cell line BJ (ATCC CRL-2522) was obtained from American Type Culture Collection (ATCC, distributors: LGC Standards, Łomianki, Poland). BJ cells were maintained in MEM medium without phenol red supplemented with 10% fetal bovine serum (FBS). Cells were maintained at 37 °C in a humidified atmosphere with 5% CO2. Cells were seeded in 96-well culture plates (Costar, St. Louis, MO, USA) at a density of 5 × 10^3 per well and initially cultured before the experiment for 24 h. […] Caspase-3 activity was assessed according to previous described method Nicholson et al. After 24 or 48 h of treatment with studied media culture plates were frozen in −80 °C and kept until assay. […] The lysates were incubated with substrate Ac-DEVD-pNA for caspase-3 at 37 °C. Cells treated with 1 μM staurosporine were used as a positive control (results not shown). After 30 min, absorbance of the lysates at 405 nm was measured using a microplate reader (FilterMax F5 Multi-Mode microplate reader). The amount of colorimetric product was continuously monitored for 120 min. The data were analyzed using Multi-Mode Analysis software (Molecular Devices, Corp., Sunnyvale, CA, USA).

A short description of data set [4]: DPPH radical scavenging assay. The format is physicochemical. The settings on record: initial solutions 10 µg/mL. As to the method: Antioxidant activity was measured using the DPPH^• radical scavenging assay according to Brand-Williams et al. (1995). Each 100 μL of post-culture fluids and initial DNR and DOX (10 μg/mL) solutions were mixed with 100 μL of […] DPPH^• solution in 96% ethanol. Following 30 min incubation at room temperature, sample absorbance was measured […]) using 96% ethanol as a blank sample.

On the set-up of data set [5]: method as in PMID 17867890. The conditions noted are these: SOS Chromotest, cited from earlier work.
The test system of data set [6] is BJ fibroblasts. In words: Calcein AM staining. The class given is cell-based, human. The settings on record: BJ cells; 24 and 48 h; parent vs Control 1, metabolite vs parent. Here is the method:
The human skin fibroblasts cell line BJ (ATCC CRL-2522) was obtained from American Type Culture Collection (ATCC, distributors: LGC Standards, Łomianki, Poland). BJ cells were maintained in MEM medium without phenol red supplemented with 10% fetal bovine serum (FBS). Cells were maintained at 37 °C in a humidified atmosphere with 5% CO2. Cells were seeded in 96-well culture plates (Costar, St. Louis, MO, USA) at a density of 5 × 10^3 per well and initially cultured before the experiment for 24 h.

Where two headings read alike, the source gives them in different places.

Protocol for V. fischeri: The Microtox® (Model 500 Analyzer, London, UK) toxicity assay was used to evaluate the inhibition of luminescence of V. fischeri marine bacteria for untreated medium supplemented with DNR and DOX (10 µg/mL) and post-culture liquids of B. adusta CCBAS 930 according to the manufacturer’s protocol.

As to `COc1cccc2c1C(=O)c1c(O)c3c(c(O)c1C2=O)C[C@@](O)(C(=O)CO)C[C@@H]3O[C@H]1C[C@H](N)[C@H](O)[C@H](C)O1` [DOX, doxorubicin], the “ROS production induced compared to Control 1” value in the data set on BJ fibroblasts [1] (24 h) was 680.22%; in the data set on BJ fibroblasts [1] (48 h), 457.34%. In addition, in the data set on V. fischeri, the “toxicity units (TU)” value is 1.90 ± 0.13. For the same molecule, the “CIF (corrected induction factor)” value with bacteria (C 0.15 µg mL^−1) amounted to 2.88; with bacteria (C 0.31 µg mL^−1), 1.21; in the data set with bacteria (C 0.62 µg mL^−1), 1.23; in the data set on bacteria (C 1.25 µg mL^−1) it was 2.53; with bacteria (C 2.50 µg mL^−1), 3.27; in the data set with bacteria (C 5 µg mL^−1) it was 3.70. Further, the “CIF (corrected induction factor)” value with bacteria (C 10 µg mL^−1) was determined as 9.58. Besides, the “decrease in the content of free radicals” value in the data set with B. adusta CCBAS 930 is 90.70%. Besides, the “decrease in resazurin reduction compared to Control 1” value is listed as 50.36% in the data set on BJ fibroblasts [2] (24 h) and 40.36% in the data set with BJ fibroblasts [2] (48 h). The caspase-3 activity entry in [3] is given as “not affected”. Further, in [4], the “antioxidant activity (DPPH scavenging)” value is listed as “did not show any antioxidant activity”. For the same molecule, the results for the “concentration exhibiting genotoxic properties” value in data set [5] (with metabolic activation) and in data set [5] (without metabolic activation) were 98 ng/mL and 74 ng/mL, respectively. The “cell number (calcein AM staining)” value with BJ fibroblasts [6] is listed as “decrease in cell number”.

As to `COc1cccc2c1C(=O)c1c(O)c3c(c(O)c1C2=O)C[C@@](O)(C(C)=O)C[C@@H]3O[C@H]1C[C@H](N)[C@H](O)[C@H](C)O1` [DNR, daunomycin], the “ROS production induced compared to Control 1” value with BJ fibroblasts [1] (24 h) was 625.72%; with BJ fibroblasts [1] (48 h) it was 372.97%. For the same molecule, the “toxicity units (TU)” value in the data set on V. fischeri was determined as 1.79 ± 0.09. For the same molecule, the “CIF (corrected induction factor)” value came to 2.50 in the data set with bacteria (C 0.15 µg mL^−1); 1.60 in the data set on bacteria (C 0.31 µg mL^−1); 1.21 with bacteria (C 0.62 µg mL^−1); 1.54 in the data set with bacteria (C 1.25 µg mL^−1); 2.80 with bacteria (C 2.50 µg mL^−1); 5.68 in the data set with bacteria (C 5 µg mL^−1). Further, the “CIF (corrected induction factor)” value in the data set on bacteria (C 10 µg mL^−1) is reported as 13.42. Further, the “decrease in the content of free radicals” value in the data set on B. adusta CCBAS 930 stood at 90.30%. Moreover, the “decrease in resazurin reduction compared to Control 1” value with BJ fibroblasts [2] (24 h) was 48.49%; with BJ fibroblasts [2] (48 h), 48.40%. Also, in data set [3], the caspase-3 activity entry is reported as “not affected”. The “antioxidant activity (DPPH scavenging)” value in data set [4] is on record as “did not show any antioxidant activity”. In addition, in the data set on BJ fibroblasts [6], the “cell number (calcein AM staining)” value is “decrease in cell number”.
